The test system of this test is hypothalamic NF-κB signaling components. Description: Western blots of hypothalamic NF-κB signaling components after third-ventricle TGF-β1. Type of test: in vivo, mice. As to the method: Induction of hypothalamic NF-κB activation by TGF-β: TGF-β is often appreciated for anti-inflammatory feature in immune response, but, depending on physiological context and particularly in pathological conditions, TGF-β can be inflammatory (28)—although it is atypical and many details are still unclear. Here, because NF-κB has been known to atypically mediate hypothalamic inflammation in obesity or aging (12-14,18-20,23-27), it was analyzed if NF-κB signaling components were different in the hypothalamus of mice with third-ventricle injection of TGF-β vs. vehicle. […] First, since IκBα loss is the specific step that immediately liberates cytoplasmic NF-κB for nuclear translocation, and NF-κB subunit RelA in the nucleus undergoes phosphorylation, RelA phosphorylation was measured in mice injected with TGF-β1 or vehicle. […] Second, it was evaluated if TGF-β1-triggered NF-κB activation could be involved in HFD-induced hypothalamic inflammation. By employing heterogeneous Tgfb1 knockout (Tgfb1 +/−) mice, whether haplodeficiency of Tgfb1 in this mouse model could affect the induction of hypothalamic inflammation by HFD feeding was examined To do so, adult Tgfb1+/− mice and littermate WT controls were subjected to HFD feeding for three weeks, and chow feeding was included to provide as dietary control. Indeed, hypothalamic Tgfb1 mRNA in chow-fed Tgfb1+/− mice dropped by ˜50% compared to chow-fed WT (FIG. 4b), which was consistent with the literature (35). […] Using these hypothalamic samples, we examined mRNA levels of a list of inflammation-related molecules including TNFα, IL-6, SOCS3, TLR4, PTP1B, PKCλ and PKCι. […] Therefore, brain TGF-β excess plays a role in inducing diet-induced hypothalamic inflammation.
Thus, while kinase (e.g., IKK)-induced IκBα phosphorylation is a crucial, rapid signaling reaction in classical inflammation, this process is not primarily critical in TGF-β1-induced hypothalamic inflammation.
To further assess this point, it was asked if the effects of brain TGF-β excess could be impaired by ablation of a signaling component, such as toll-like receptor-4 (TLR4) or myeloid differentiation primary response gene 88 (MyD88), because they employ kinase signaling to induce IκBα phosphorylation and thus NF-κB activation. […]
Protein, mRNA and peptide analyses. […] Quantification of Western blots was processed with Image J. Total RNA was extracted from hypothalamic tissue using TRIzol® (Invitrogen), and cDNA was synthesized using M-MLV RT System (Promega). Using SYBR® Green PCR Master Mix (Applied Biosystems), expression levels of target genes were analyzed via PCR amplification and quantification. […] Serum and CSF TGF-β content were measured using TGF-β ELISA kit (R&D Systems).
A general note: In western blotting, separated proteins are transferred to a membrane and probed.

[1] abbreviates: third-ventricle injection vs vehicle.

In the case of “TGF-β1: transforming growth factor-β1 (Sigma), cytokine dissolved in artificial cerebrospinal fluid for third-ventricle injection”, the “hypothalamic TAK1 phosphorylation” value (mouse, in vivo) is reported as “did not lead to hypothalamic TAK1 phosphorylation”. For the same substance, the “phosphorylated levels of IκBα” value (normalized by IκBα protein levels) is “did not change”. Under setting [1], the “hypothalamic IκBα protein levels” value is “significant reduction” and the “hypothalamic RelA phosphorylation” value is reported as “significantly increased”.

Values taken from patent US20170114128A1, “USE OF TGF-BETA ANTAGONISTS OF TREAT TYPE-2 DIABETES” (ALBERT EINSTEIN COLLEGE OF MEDICINE, INC., priority 2014, published 2017).
